Results as given in patent US20150160214A1, “Quantitation of Cellular Adhesion Dynamics Across Immobilized Receptors Under Rheological Shear Flow” (Mayo Foundation for Medical Education and Research, priority 2013, published 2015).
Several values for one entry are separate records, joined by “and”; a condition that tells them apart may be missing. Equal entries are not always repeated.

Columns and labels:
[1] = system: T1, platelet GP1bα (Homo sapiens); assay: Platelet pause times and translocation velocities on immobilized A1 under shear flow, parallel-plate flow chamber (Example 1); assay type: cell-based; details: 300 μM peptide incubated with immobilized A1-1261; 66 μM in whole blood and buffer
T1 construct: perfused at low shear to enable platelets to attach to the surface immobilized domains; endogenous in cells; host or cells: platelets in citrated whole blood of healthy donors
Source text: (§1) To understand the effect of the N-terminal peptide on the function of the A1-domain of vWF, the protein was expressed with (A1-1238) and without the N-terminal peptide (A1-1261). The inventor used a flow chamber to measure the dynamics of platelet interactions with A1-1238 and A1-1261. Each domain variant was immobilized on glass slides with a modified Cu^2+ chelating chemistry that enabled surface capture via the N-terminally fused histidine tag. This method ensured reproducible capture of the proteins eliminating possible structural issues associated with nonspecific immobilization on plastic or glass. The slides were completely inert to platelets. Next, 1 mL of citrated whole blood followed by Tris buffered saline was perfused at low shear to enable platelets to attach to the surface immobilized domains. After red cells were perfused away with buffer, the translocation of the remaining attached platelets over the surfaces was recorded at each shear rate and the velocities and pause times calculated from the coordinate data of each platelet on the surface as described in the methods. […] In addition, the translocation velocities were increased for A1-1238 relative to A1-1261. To determine if this N-terminal sequence could inhibit the catch bond when free in solution, the inventor incubated surface immobilized A1-1261 with excess free peptide and added the free peptide to 1 mL of whole blood and to our perfusion buffer and performed the assay.
(§2) Determination of platelet pause times. Determination of platelet pause times A Glycotech† rectangular parallel-plate flow chamber was mounted to slides with a chelated Cu 21 surface obtained from Microsurfaces Inc. # to which the A1-1261 and A1-1238 domains in TBS were immobilized by the 63His-Tag. Citrated whole blood (1 mL) obtained from informed consent of healthy donors with approval from the Baylor College of Medicine institutional review board followed by buffer was perfused through the chamber at 300s21 for A1-1261 and 700s21 for A1-1238 shear rate to attach platelets to the surface immobilized proteins using a syringe driven variable flow rate pump. The shear was increased incrementally and 1 min movies were recorded at 25 frames/s in phase contrast with 232 pixel binning on a Zeiss Axiocam MRm camera attached to a Zeiss Axio Observer D1 inverted microscope. Tracking analysis was performed using Mediacybernetics ImagePro Premier§. The resulting X-Y coordinate data for each platelet track was differentiated into instantaneous velocities using a Savitzky-Golay algorithm (Savitzky:1964) with a five data point window size and a second-order polynomial implemented into a Mathamatica notebook. These platelet tracks were retained for statistical analysis if the platelet was present for at least 1 s and travelled a total distance greater than 1 lm. Distance travelled in pixels was converted to lm given the camera pixel size=6.45 μm^2, pixel binning, and microscope magnification=400×. Pause times were determined by the amount of time (seconds) a platelets velocity was =0±0.13 μm/s, within the noise. Pause times for all platelet tracks are reported as the mean of the medians. Examples of this analysis for individual platelets and for multiple platelets are provided in the Supporting Information.
(§3) Frame by frame platelet trajectory analysis. Tracking coordinates of individual platelets in units of pixels were exported from ImagePro Premier as a text file and imported into a Mathematica notebook that calculates a Savitzky-Golay first derivative of the total distance traveled over time (Savitzky:1964). The distance was calculated from the X and Y coordinates with the following equation.
(§4) Pause times were determined from the length of time the platelet velocity remained within 0±4 pixel/sec=0.129 μm/sec as illustrated in FIG. 8B. Median pause times were calculated from velocity time profiles for all platelet tracks, stored in a list and translated to histograms for multiple platelets. […]

platelet GP1bα = target: T2, platelet GP1bα (Homo sapiens, UniProt P04275); assay: as above; assay type: cell-based
T2 construct: perfused at low shear to enable platelets to attach to the surface immobilized domains; endogenous in cells; host or cells: platelets in citrated whole blood of healthy donors
Source text: as §1, §2, §3, §4

[2] = Far-UV CD spectra, secondary structure content (Example 1); assay type: physicochemical; details: free in solution
Source text: Both proteins show a spectrum dominated by relatively high α-helical content as indicated by the two minima at λ=222 nm and 208 nm. […] By contrast, the spectrum of the N-terminal peptide is dominated by the contribution of random coil-structure and spectrally equivalent to a peptide containing a scrambled sequence but identical amino acid composition.

A1-1261 = target: T3, A1-1261 (Homo sapiens, UniProt P04275); assay: Binding of free N-terminal peptide to A1-1261 from thermal unfolding enthalpy (tryptophan fluorescence)
T3 construct: A1-1261 (amino acids D1261-P1471); made in house
Source text: This would imply a specific interaction between this N-terminal sequence and the A1 domain when covalently linked in sequence. The only way to examine such a stabilization using spectroscopy was the measurement of thermal unfolding via fluorescence. Since the N-terminal peptide also contains a single tyrosine residue, the excitation wavelength was changed to λ=295 nm in order to measure tryptophan fluorescence and the effect of the peptide on the unfolding of the A1-domain was observed indirectly. Thermal scans of 2 μM A1-1261 were performed as a function of increasing amounts of the N-terminal peptide at 2° Celsius/min. […] Thermal scans were also done in the presence of a peptide with the same amino acid composition, but a scrambled sequence. The inset of FIG. 7A compares the raw fluorescence thermal scans in the presence of 300 μM scrambled and N-terminal peptides. Unfolding in the presence of excess scrambled peptide was equivalent to unfolding in the absence of either peptide. […] Fitting the enthalpy data to a simple single site binding model yields a dissociation constant of ≈46±6 μM.
Prior to all spectroscopic thermal scans, protein samples were equilibrated at 10° Celsius for 15 min to obtain a stable baseline. CD thermal scans between 10 and 95° Celsius were recorded at λ=222 nm using a protein concentration of 1 or 2 μM in a 1 cm quartz cell under moderate stirring. Scan rates were 0.5, 1.0, 1.5 and 2.0° Celsius/min. Integration time for each data point was 20 s with a 1 nm bandwidth. Fluorescence thermal scans between 10 and 95 Celsius were recorded at an emission λ=359 nm after excitation λ=280 nm or λ=295 nm using 2 μM protein in a 1 cm quartz cell with moderate stirring. Scan rates were 0.4 or 0.6, 0.9, 1.6 and 2.0° Celsius/min. At each temperature, relative fluorescence intensity was collected for 4 s and averaged. Thermal scans in the presence of N-terminal peptide at 2.0° Celsius/min were preceded by 1 h incubations at 20° Celsius with 0.02-300 μM peptide.
For the thermal unfolding studies in the presence of peptide, the inventor treated the change in enthalpy of unfolding, ΔHT*^‡ as an observable directly proportional to the degree of binding, X, because the T* was not dependent on peptide concentration.
For the simple single site binding model, A1+P<->A1P, where P is the peptide, the degree of binding is given by
where K is the binding affinity and the free peptide, [P], concentration is given in terms of the total protein, A1T, and peptide, PT, concentrations.

T1 sequence (P04275 1261-1471): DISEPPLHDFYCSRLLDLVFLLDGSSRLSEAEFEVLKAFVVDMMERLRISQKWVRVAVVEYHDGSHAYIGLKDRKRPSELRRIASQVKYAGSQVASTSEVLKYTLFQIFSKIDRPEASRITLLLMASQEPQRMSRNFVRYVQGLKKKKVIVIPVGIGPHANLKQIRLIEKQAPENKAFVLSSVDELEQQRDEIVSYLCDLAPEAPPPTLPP

H-QEPGGLVVPPTDAPVSPTTLYVE-OH [N-terminal peptide]
Effect of free peptide on platelet pause times on immobilized A1-1261 [1]: significant decrease in pause times
Effect of free peptide on platelet translocation velocities on immobilized A1-1261 (platelet GP1bα; 300 μM peptide incubated with immobilized A1-1261, 66 μM in whole blood and buffer): increase in translocation velocities
Effect of free peptide on platelet pause times or translocation velocities on immobilized A1-1238 (platelet GP1bα; free peptide added): did not significantly change the pause times or translocation velocities
β and random coil content of the sequence [2]: > 80%
Effect of peptide on unfolding enthalpy of A1-1238 (A1-1261): did not change the unfolding enthalpy
Kd (A1-1261; single site binding model fit to unfolding enthalpy, 2 μM A1-1261, 2° Celsius/min, read-out: Dissociation constant (KD) of N-terminal peptide binding to A1-1261): 46 µM and ~46 µM
